The inhibition is how much of the control response was suppressed. A word on the IC50: it is the concentration that inhibits the measured activity by half. A lower IC50 goes with inhibition by little substance. As a reminder, the Kd is the constant that tells how readily two partners part at equilibrium. High values mean a looser complex, low ones a tighter complex. The term half-life denotes the time needed for the level to fall by half in the phase considered. High values mean slow decline, low ones rapid decline. Broadly, the solubility (thermodynamic) is the concentration in solution at equilibrium with solid. Broadly, the fraction unbound is the share of the substance not bound to proteins or other matrix. Read a high fraction unbound as much free substance. By bioavailability is commonly meant dose-corrected exposure relative to a reference, in per cent. Low readings indicate poor availability, high ones good availability. One may read the clearance as a measure of how efficiently the substance is removed, as volume per time. By Cmax is commonly meant the peak of the concentration-time curve.

In data set [1] the target is Serine/threonine-protein kinase SIK2 (Homo sapiens) (UniProt Q9H0K1). As to the kind of experiment: Competitive binding affinity to QIK (unknown origin) at 10 uM in presence of ATP relative to control.
In another data set the target is Cytochrome P450 2C9 (Homo sapiens, UniProt P11712). In words: Inhibition of CYP2C9 (unknown origin). It is filed as ADME.
For a further data set, the target named is eIF-2-alpha kinase GCN2 (Homo sapiens, UniProt Q9P2K8, S808G). As to the kind of experiment: Binding affinity to GCN2 kinase domain 2 S808G mutant (unknown origin).
A short description of data set [2]: Half life in Hanover-Wistar rat at 2 mg/kg, po. Also on record: dose 2 mg/kg, route oral. The settings on record: in vivo. It is filed as ADME, organism-based.
The target in data set [3] is Mitogen-activated protein kinase 9 (Homo sapiens, UniProt P45984). As to the kind of experiment: Binding affinity to JNK2 (unknown origin).
In data set [4] the target is Dual specificity mitogen-activated protein kinase kinase 4 (Homo sapiens, UniProt P45985). In words: Binding affinity to MEK4 (unknown origin).
The target in data set [5] is Mitogen-activated protein kinase 3 (Homo sapiens, UniProt P27361). In words: Binding affinity to ERK1 (unknown origin).
The next data set has as its target LIM domain kinase 1 (Homo sapiens, UniProt P53667). As to the kind of experiment: Binding affinity to LIMK1 (unknown origin).
Data set [6] has as its target Death-associated protein kinase 2 (Homo sapiens, UniProt Q9UIK4). As to the kind of experiment: Binding affinity to DAPK2 (unknown origin).
Data set [7] deals with Mitogen-activated protein kinase 6 (Homo sapiens, UniProt Q16659). As to the kind of experiment: Binding affinity to ERK3 (unknown origin).
Data set [8] has as its target Serine/threonine-protein kinase 16 (Homo sapiens, UniProt O75716). In words: Binding affinity to STK16 (unknown origin).
The nature of data set [9]: Intrinsic clearance in rat liver microsomes measured per mg of protein. The note with it: read-out: CLH. It is filed as ADME, Microsome. For orientation: Liver microsomes are vesicles of endoplasmic reticulum, rich in cytochrome P450 enzymes.
Data set [10] deals with Cyclin-dependent kinase 7 (Homo sapiens, UniProt P50613). As to the kind of experiment: Binding affinity to CDK7 (unknown origin).
Data set [11] deals with Serine/threonine-protein kinase Nek1 (Homo sapiens, UniProt Q96PY6). In words: Binding affinity to NEK1 (unknown origin).
Data set [12] addresses Death-associated protein kinase 1 (Homo sapiens, UniProt P53355). In words: Binding affinity to DAPK1 (unknown origin).
For data set [13], the target named is Mitogen-activated protein kinase 8 (Homo sapiens, UniProt P45983). In words: Binding affinity to JNK1 (unknown origin).
Data set [14] concerns the target Cyclin-dependent kinase 11A (Homo sapiens, UniProt Q9UQ88). As to the kind of experiment: Binding affinity to CDC2L2 (unknown origin).
Data set [15] is described as follows: Equilibrium aqueous solubility in phosphate buffer at pH 6.5 at 25 degC. It is filed as physicochemical.
A short description of data set [16]: Fraction unbound in human plasma. The class given is ADME, cell-free.
In data set [17] the target is Serine/threonine-protein kinase Nek5 (Homo sapiens, UniProt Q6P3R8). As to the kind of experiment: Binding affinity to NEK5 (unknown origin).
For data set [18], the target named is Cyclin-dependent kinase 11B (Homo sapiens, UniProt P21127). In words: Binding affinity to CDC2L1 (unknown origin).
For data set [19], the target named is Serine/threonine-protein kinase Nek7 (Homo sapiens, UniProt Q8TDX7). In words: Binding affinity to NEK7 (unknown origin).
Data set [20] is described as follows: Oral bioavailability in Hanover-Wistar rat at 20 mg/kg. It is filed as ADME, organism-based. The note with it: in vivo.
Data set [21] in a line: Clearance in Hanover-Wistar rat at 0.5 mg/kg, iv. The class given is ADME, organism-based. Also on record: dose 0.5 mg/kg, route intravenous. The note with it: in vivo.
Data set [22] addresses Myosin light chain kinase family member 4 (Homo sapiens, UniProt Q86YV6). As to the kind of experiment: Binding affinity to SgK085 (unknown origin).
The test system of data set [23] is Rattus norvegicus. As to the kind of experiment: Cmax in Hanover-Wistar rat at 0.5 mg/kg, iv. The class given is ADME, organism-based. Also on record: dose 0.5 mg/kg, route intravenous. The settings on record: in vivo.
Data set [24] in a line: Oral bioavailability in Hanover-Wistar rat at 2 mg/kg. It is filed as ADME, organism-based. The note with it: in vivo.
The test system of data set [25] is Rattus norvegicus. In words: Cmax in Hanover-Wistar rat at 20 mg/kg, po. The class given is ADME, organism-based. More on the design: dose 20 mg/kg, route oral. The note with it: in vivo.
The target of data set [26] is Dual specificity protein kinase TTK (Homo sapiens, UniProt P33981). In words: Binding affinity to TTK (unknown origin).
Data set [27] concerns the target NUAK family SNF1-like kinase 2 (Homo sapiens, UniProt Q9H093). In words: Binding affinity to SNARK (unknown origin).
Data set [28] addresses Mitogen-activated protein kinase 7 (Homo sapiens, UniProt Q13164). In words: Binding affinity to ERK5 (unknown origin).
The target of data set [29] is Mitogen-activated protein kinase 14 (Homo sapiens, UniProt Q16539). As to the kind of experiment: Binding affinity to p38-alpha (unknown origin).
The target in data set [30] is Mitogen-activated protein kinase 15 (Homo sapiens, UniProt Q8TD08). In words: Binding affinity to ERK8 (unknown origin).
The target in data set [31] is Serine/threonine-protein kinase DCLK3 (Homo sapiens, UniProt Q9C098). As to the kind of experiment: Binding affinity to DCAMKL3 (unknown origin).

Each structure is given as a SMILES string. In brackets after ≈: the same amount, converted by molar mass.

Mitogen-activated protein kinase 7, sequence (Q13164 whole entry): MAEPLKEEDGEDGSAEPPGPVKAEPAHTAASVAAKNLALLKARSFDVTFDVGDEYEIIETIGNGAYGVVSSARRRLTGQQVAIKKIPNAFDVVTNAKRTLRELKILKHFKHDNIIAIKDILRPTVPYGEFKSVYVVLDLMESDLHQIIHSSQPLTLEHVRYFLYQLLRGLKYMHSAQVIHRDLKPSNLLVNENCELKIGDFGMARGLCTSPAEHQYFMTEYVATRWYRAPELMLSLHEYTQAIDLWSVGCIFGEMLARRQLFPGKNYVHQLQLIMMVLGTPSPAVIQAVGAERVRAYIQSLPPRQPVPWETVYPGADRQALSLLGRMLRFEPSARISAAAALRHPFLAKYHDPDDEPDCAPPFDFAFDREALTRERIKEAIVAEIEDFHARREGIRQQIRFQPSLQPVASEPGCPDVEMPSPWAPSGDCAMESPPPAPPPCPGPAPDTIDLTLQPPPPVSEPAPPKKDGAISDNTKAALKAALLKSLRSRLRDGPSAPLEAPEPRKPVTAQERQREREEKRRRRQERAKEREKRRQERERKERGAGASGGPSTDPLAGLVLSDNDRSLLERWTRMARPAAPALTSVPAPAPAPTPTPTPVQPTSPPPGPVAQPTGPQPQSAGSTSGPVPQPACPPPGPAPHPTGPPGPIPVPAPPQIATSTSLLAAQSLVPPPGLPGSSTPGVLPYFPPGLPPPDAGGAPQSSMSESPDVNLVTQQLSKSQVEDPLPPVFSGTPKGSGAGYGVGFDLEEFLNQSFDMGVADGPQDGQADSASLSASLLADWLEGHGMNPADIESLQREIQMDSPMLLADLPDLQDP
eIF-2-alpha kinase GCN2, sequence (Q9P2K8 whole entry S808G, the tested form may be a part): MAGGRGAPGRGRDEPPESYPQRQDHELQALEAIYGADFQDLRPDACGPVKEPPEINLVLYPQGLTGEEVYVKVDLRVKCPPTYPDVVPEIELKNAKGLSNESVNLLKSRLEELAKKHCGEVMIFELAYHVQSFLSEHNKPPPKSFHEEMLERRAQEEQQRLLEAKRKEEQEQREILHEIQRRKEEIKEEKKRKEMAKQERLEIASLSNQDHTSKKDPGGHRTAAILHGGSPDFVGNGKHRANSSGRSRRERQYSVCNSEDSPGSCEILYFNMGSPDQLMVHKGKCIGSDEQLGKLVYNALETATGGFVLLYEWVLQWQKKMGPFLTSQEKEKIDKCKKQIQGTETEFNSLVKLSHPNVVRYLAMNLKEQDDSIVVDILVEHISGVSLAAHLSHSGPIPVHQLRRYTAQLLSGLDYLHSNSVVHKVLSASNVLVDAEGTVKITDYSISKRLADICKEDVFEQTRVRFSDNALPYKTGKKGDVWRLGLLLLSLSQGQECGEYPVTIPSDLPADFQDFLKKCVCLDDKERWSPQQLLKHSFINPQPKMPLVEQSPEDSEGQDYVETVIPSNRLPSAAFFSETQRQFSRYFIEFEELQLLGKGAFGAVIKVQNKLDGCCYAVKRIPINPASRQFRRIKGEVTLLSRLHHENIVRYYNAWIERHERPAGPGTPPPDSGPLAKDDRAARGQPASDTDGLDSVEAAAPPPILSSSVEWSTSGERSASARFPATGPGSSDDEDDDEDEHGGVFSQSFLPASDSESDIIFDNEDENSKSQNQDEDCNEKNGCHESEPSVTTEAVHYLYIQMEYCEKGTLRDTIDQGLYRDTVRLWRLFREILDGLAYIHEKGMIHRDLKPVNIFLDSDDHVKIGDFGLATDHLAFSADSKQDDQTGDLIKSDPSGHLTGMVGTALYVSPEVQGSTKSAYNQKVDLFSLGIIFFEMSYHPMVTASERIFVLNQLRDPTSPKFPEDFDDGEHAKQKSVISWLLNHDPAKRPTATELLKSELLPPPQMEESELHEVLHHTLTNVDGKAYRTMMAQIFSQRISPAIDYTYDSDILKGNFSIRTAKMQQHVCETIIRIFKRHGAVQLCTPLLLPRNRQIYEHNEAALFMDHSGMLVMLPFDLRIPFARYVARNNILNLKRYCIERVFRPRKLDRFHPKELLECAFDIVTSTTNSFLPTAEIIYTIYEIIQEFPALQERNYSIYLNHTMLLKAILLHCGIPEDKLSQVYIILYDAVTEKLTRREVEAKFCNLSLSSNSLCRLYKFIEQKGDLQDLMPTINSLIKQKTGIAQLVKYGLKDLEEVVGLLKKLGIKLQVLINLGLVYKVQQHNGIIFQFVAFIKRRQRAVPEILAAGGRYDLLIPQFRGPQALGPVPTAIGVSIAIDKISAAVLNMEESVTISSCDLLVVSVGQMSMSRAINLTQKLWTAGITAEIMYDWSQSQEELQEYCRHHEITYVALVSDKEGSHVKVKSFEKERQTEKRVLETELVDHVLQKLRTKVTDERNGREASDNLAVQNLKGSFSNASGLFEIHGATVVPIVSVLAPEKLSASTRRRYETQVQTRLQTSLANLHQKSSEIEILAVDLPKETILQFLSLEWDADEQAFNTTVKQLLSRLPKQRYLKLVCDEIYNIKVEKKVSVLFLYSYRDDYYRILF
Serine/threonine-protein kinase Nek1, sequence (Q96PY6 whole entry): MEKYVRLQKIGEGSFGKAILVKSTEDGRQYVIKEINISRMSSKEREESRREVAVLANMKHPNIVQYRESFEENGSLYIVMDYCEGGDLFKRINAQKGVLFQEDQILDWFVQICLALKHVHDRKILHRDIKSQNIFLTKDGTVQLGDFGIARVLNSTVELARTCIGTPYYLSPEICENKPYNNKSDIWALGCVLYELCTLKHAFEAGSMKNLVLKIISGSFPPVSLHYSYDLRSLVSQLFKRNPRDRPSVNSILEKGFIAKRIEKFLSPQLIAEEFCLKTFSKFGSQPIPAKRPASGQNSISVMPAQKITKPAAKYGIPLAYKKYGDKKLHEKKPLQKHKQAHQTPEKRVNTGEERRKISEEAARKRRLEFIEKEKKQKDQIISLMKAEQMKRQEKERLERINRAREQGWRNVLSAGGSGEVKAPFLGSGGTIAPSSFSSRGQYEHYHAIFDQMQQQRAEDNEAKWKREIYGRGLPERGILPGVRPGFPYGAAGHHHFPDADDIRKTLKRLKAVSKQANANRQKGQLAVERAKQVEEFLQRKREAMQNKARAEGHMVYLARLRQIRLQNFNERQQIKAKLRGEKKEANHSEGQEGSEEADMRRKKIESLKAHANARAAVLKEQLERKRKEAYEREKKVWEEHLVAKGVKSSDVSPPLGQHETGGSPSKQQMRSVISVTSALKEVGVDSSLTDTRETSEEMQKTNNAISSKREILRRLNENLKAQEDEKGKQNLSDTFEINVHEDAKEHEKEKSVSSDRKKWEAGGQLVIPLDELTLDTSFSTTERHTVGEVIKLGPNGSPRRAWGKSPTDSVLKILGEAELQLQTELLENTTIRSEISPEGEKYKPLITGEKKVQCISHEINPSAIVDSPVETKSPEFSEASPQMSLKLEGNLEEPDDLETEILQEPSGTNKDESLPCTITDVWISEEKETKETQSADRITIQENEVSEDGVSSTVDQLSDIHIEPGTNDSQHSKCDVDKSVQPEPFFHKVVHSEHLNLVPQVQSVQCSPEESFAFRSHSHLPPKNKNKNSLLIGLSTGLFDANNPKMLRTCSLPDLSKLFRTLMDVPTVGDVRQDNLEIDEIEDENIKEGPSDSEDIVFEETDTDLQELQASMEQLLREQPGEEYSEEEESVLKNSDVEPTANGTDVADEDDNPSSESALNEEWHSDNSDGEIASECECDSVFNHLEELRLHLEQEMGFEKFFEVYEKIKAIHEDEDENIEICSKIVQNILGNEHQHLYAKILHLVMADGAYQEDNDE
Serine/threonine-protein kinase Nek7, sequence (Q8TDX7 whole entry): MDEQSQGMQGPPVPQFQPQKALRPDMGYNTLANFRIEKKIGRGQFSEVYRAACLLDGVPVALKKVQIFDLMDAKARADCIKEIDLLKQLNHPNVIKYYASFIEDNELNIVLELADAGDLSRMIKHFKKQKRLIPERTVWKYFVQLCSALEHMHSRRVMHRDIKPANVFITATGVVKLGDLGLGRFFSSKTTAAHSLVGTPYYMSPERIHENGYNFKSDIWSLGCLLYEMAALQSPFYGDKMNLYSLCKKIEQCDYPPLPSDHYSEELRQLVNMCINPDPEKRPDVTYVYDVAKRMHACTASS
Mitogen-activated protein kinase 8, sequence (P45983 whole entry): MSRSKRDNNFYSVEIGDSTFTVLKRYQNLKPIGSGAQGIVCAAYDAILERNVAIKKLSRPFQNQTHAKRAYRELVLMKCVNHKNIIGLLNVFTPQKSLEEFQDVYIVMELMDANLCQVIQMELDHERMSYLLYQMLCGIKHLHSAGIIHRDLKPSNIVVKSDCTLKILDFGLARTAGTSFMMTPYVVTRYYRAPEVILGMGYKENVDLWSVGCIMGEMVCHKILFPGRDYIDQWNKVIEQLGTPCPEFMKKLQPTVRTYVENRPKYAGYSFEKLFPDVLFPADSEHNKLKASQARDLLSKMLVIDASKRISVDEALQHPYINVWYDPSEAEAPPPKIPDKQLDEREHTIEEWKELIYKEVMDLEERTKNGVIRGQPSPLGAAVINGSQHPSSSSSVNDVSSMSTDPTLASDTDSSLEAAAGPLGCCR
NUAK family SNF1-like kinase 2, sequence (Q9H093 whole entry): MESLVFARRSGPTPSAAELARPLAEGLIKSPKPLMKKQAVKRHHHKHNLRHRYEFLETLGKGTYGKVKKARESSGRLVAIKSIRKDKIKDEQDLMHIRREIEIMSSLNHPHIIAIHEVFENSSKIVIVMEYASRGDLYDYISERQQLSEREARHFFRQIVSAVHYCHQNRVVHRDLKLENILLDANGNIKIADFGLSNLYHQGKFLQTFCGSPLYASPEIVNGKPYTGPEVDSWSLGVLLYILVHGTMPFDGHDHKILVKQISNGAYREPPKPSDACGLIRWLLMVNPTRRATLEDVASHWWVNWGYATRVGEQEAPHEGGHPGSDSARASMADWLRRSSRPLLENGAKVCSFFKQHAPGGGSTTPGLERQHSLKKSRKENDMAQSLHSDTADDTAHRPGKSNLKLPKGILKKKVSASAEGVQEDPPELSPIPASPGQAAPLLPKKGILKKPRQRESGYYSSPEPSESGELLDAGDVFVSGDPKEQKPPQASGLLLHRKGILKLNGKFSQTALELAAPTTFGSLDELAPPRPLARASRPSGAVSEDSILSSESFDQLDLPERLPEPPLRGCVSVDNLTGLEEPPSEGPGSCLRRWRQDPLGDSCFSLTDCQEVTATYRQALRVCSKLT

For the molecule `O[C@H]1CC[C@H](Nc2nccc(-c3n[nH]c4ccccc34)n2)CC1`, in data set [1], the inhibition is under 50%.

In the case of `O[C@H]1CC[C@H](Nc2nccc(-n3nnc4ccccc43)n2)CC1`, the midpoint of inhibition against Cytochrome P450 2C9, the IC50, lay at 7.8 nM.

For the molecule `CS(=O)(=O)CCCOc1cccc2c1ccn2-c1ccnc(N[C@H]2CC[C@H](C(=O)N3CCC(O)CC3)CC2)n1`, the Kd was found to be 2700 nM on eIF-2-alpha kinase GCN2; 13 nM in data set [3]; 390 nM in data set [4]; 1800 nM in data set [5]; 870 nM at LIM domain kinase 1; 1300 nM in [6]. The dissociation constant (Kd) is 330 nM in data set [7]; 450 nM in data set [8]; 620 nM in [10]; 4000 nM in data set [11]; 380 nM in data set [12]; 0.75 nM in data set [13]. The Kd in data set [14] came out at 2400 nM; in data set [17], 1400 nM; in data set [18], 1300 nM; in data set [19] it was 6900 nM; in data set [22] it was 620 nM; in data set [26], 1900 nM. The Kd stood at 2600 nM in data set [27]; 1500 nM in data set [28]; 8800 nM in [29]; 650 nM in data set [30]; 1800 nM in data set [31]. In data set [2], this molecule had a half-life of 4 h. Moreover, the microsomal CLint in data set [9] turned out to be 52 µL/min/mg. Further, the solubility (thermodynamic) in [15] was 3.9 µg/mL (≈ 7.02 µM). In data set [16], this molecule returned a free fraction (fraction unbound) of 0.05. For the same molecule, the bioavailability in data set [20] worked out at 13%; in [24] it was 7%. In [21], this molecule registered a clearance of 4.6 mL/min/kg. For the same molecule, the Cmax in the data set on Rattus norvegicus [23] amounted to 2670 ng/mL; in the data set on Rattus norvegicus [25], 3680 ng/mL.

The values above are taken from ChEMBL document CHEMBL2424622, “Development of amino-pyrimidine inhibitors of c-Jun N-terminal kinase (JNK): kinase profiling guided optimization of a 1,2,3-benzotriazole lead” (Bioorg Med Chem Lett, 2013).
